According to patent US20050124554A1, “Spermidine derivatives for the treatment of chronic neurodegenerative diseases” (priority 2002, published 2005):
“And” between values parts separate entries of the source, which are not always exact repeats. Equal values may be shown once.

Tests used:
[1] = system: superoxide production in organotypic slice cultures (CA1 pyramidal cell layer); experiment: Superoxide production monitored fluorescently with hydroethidine (HEt); type: cell-based, Wistar rat; settings: 10 μM AMPA alone
Method: Hydroethidine (HEt) has been utilised to fluorescently monitor the production of superoxide in primary neuronal cultures [Bindokas et al., (1996), Carriedo et al. (1998)]. A stock solution of HEt was made was made in N2 sparged DMSO (10 mg ml^−1) which was then aliquoted and stored at −80° C. aliquots were used only once before being discarded. Two separate experimental paradigms were employed to test the effect of L-Arg3,4 on superoxide production in response to either AMPA or NMDA stimulation.
For the AMA experiments, organotypic slice cultures were loaded with 1 μg ml^−1 HEt in HEPES buffered salt solution (HSS) (in mM): glucose 10, NaCl 144, KCl 5, HEPES 10, MgCl2 1, CaCl2 2, pH 7.4, for 30 minutes in the dark. All subsequent solutions contained HEt to prevent a decrease in signal due to reporter depletion. Images were acquired once per minute for the duration of the experiment on the same system as described above for assessment of cell death. A 10 minute record of baseline superoxide production was produced before the bathing solution was exchanged for HBSS+BEt containing 10 μM AMPA, again for 10 minutes. As shown previously, stimulation of glutamate receptors with AMPA lead to an increase in superoxide production [Bindokas et al., (1996), Carriedo et al. (1998)]. The bathing solution was then exchanged for HBSS+HEt containing both 10 μM AMPA and 300 μM L-Arg3,4 for 10 minutes to test the effect of L-Arg3,4 on superoxide production. In separate control experiments, 300 μM L-Arg3,4 in HSS was incubated with slices to determine if it affected baseline superoxide production on its own.
Acquired images from the AMPA experiments were then analysed with the OpenLab image analysis package. A region of interest was drawn around the CA1 pyramidal cell layer because this was the cell layer that produced the largest increase in fluorescence in response to AMPA activation. In each image, within the region of interest, the average pixel value was calculated in arbitrary units (AU) to produce a record of fluorescence intensity values over time. A linear regression was then performed on the data to calculate the rate of superoxide production as change in intensity over time (arbitrary units per minute, AU min^−1) for each of the treatments. Data is presented as mean±s.d. Rates of superoxide production were then compared by ANOVA followed by post-hoc comparisons with Bonferroni corrections with significance indicated as * for P<0.05 and ** for P<0.01.

models of excitotoxicity = settings: Hartley & Choi 1989; cited from earlier work
[2] = system: acute hippocampal slices (CA1 pyramidal cell layer, Schaffer collateral stimulation); experiment: Electrophysiology: evoked field responses / synaptic transmission; design: species or system Sprague-Dawley rats
Text: All animal procedures to produce acute hippocampal slices were approved by the Home Office. Male, 250 g, Sprague-Dawley rats were deeply anaesthetised with halothane and decapitated. The brain was quickly removed, and the hippocampi dissected out and then cut into 300 μm thick transverse slices on a vibratome (Leica, Milton Keynes, UK) in cold cutting solution (in mM: 189 sucrose, 2.5 KCl, 26 NaHCO3, 1.2 NaH2PO4, 10 glucose, 5 MgCl2, 0.1 CaCl2) equilibrated with 5% CO2, 95% O2. Slices were transferred to aCSF (in mM: 10 glucose, 125 NaCl, 5 KCl, 26 NaHCO3, 1 MgCl2, 1.25 NaH2PO4, 2 CaCl2, 10 sucrose) at room temperature, bubbled with 5% CO2 and 95% O2, for at least 1 h before use.
Slices were then transferred to a submerged perfusion chamber (2 ml volume) for the electrophysiological recordings and were perfused at 10 ml min^−1 at 25° C. with aCSF equilibrated with 5% CO2 and 95% O2, and allowed to equilibrate for 1 h before manipulations were started. Experimental compounds were applied by bath perfusion. L-Arg3,4 was applied at 300 μM and DNQX was applied at 10 μM final concentration. DNQX was diluted from a 40 mM stock in DMSO (final DMSO of 0.025%). The Schaffer collaterals of CA3 were stimulated at voltages from 0 to 30 V with a constant voltage stimulator (Digitimer, Hertfordshire, UK) via a twisted pair stimulating electrode of polyimide coated stainless steel wire (Plastics One, Roanoke, Va.). Field potential responses were recorded with an Axopatch 200B amplifier (Axon Instruments, Foster City, Calif.) in the fast current clamp mode via a 2M KCl filled glass electrode (2-5 MQ) in the CA1 pyramidal cell layer. Responses were filtered at 2 kHz, digitised at 20 kHz with a Digidata 1320A (Axon Instruments), and stored onto hard disk with Clampex 8.1 software (Axon Instruments) running on a Dell Pentium III PC. Data was analysed in Clampfit 8.1 (Axon Instruments).
Stimulus-response (S/R) curves were generated from stimuli from 0 to 30 V in 2 V increments. Bath perfusion of 300 μM L-Arg3,4 in aCSF was applied for 10 min with a sub-maximal stimulus applied every minute to monitor synaptic transmission. A second S/R curve was generated before the perfusion was switched back to plain aCSF. A sub-maximal stimulus was applied every minute during the 15 min wash period after which a third SIR curve was generated. Perfusion of 10 μM DNQX was then started until the response to the sub-maximal stimulus was completely eliminated which always occurred within 10 min. […] In Clampfit, S/R curves were fit to a sigmoidal function of the form: [formula] where R is the magnitude of the evoked response, Rmax is the maximum response, V50 is the voltage which produces a half maximal response, S is the stimulus voltage, and m is proportional to the slope of the linear region of the sigmoid. Data was compared by one way ANOVA.

Cc1o[nH]c(=O)c1CC(N)C(=O)O (centres unmarked) [AMPA, reference compound]
increase of rate of superoxide production over baseline [1]: approximately 5 fold | rate of superoxide production [1]: 10.65±3.70 AU min-1

N[C@H](CCCP(=O)(O)O)C(=O)O [D-APV]
delay of administration at which effectiveness is lost (therapeutic window) (models of excitotoxicity): 30 min

O=c1[nH]c2cc([N+](=O)[O-])c([N+](=O)[O-])cc2[nH]c1=O [DNQX, 6,7-Dinitroquinoxaline-2,3(1H,4H)-dione, reference compound]
time to complete elimination of response / synaptic transmission ([2]; 10 μM, all slices): ≤ 10 min | time to elimination of all transmission ([2]; 10 μM, single slice, sub-maximal stimulus): ≤ 5 min | effect on evoked responses ([2]; bath application, L-Arg3,4 300 μM, DNQX 10 μM): blocked the evoked response completely

C[C@]12N[C@H](Cc3ccccc31)c1ccccc12 [MK-801]
delay of administration at which effectiveness is lost (therapeutic window) (models of excitotoxicity): 30 min and 15 min

COc1ccc2c(c1)[C@]13CCCC[C@@H]1[C@H](C2)N(C)CC3 [dextromethorphan]
delay of administration at which effectiveness is lost (therapeutic window) (models of excitotoxicity): 30 min
